# Source: the supplement of paper PMC10307832
# Tests used:
# Test in all cases: relative viability (nuclei count vs DMSO), 5 days (fraction); higher = more cells survive
# [1] = compound: CC1=CC(=NN1)NC2=CC(=NC(=N2)/C=C/C3=CC=CC=C3)N4CCN(CC4)C
# In short: (§1)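 Only plates meeting two conditions passed: control CV below 25% and at least one doubling. Lung cancer cell lines, kept overnight at 37 °C in 1536-well plates, were pinned with five library-drug doses (not always all listed) √10 apart on vehicle-anchored plates and grown 5 days without medium change. A one-step fix, permeabilisation and Hoechst stain preceded 4× imaging and MetaXpress nuclear counting. Viability equals treated-well nuclei divided by vehicle-well nuclei, as the median over plates.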
# [2] = compound: COC1=CC(c2cc3ccccc3[nH]2)=N/C1=C\c1[nH]c(C)cc1C [Obatoclax]
# In short: as §1
# [3] = compound: CC(C)C[C@H](NC(=O)[C@H](Cc1ccccc1)NC(=O)c1cnccn1)B(O)O [Bortezomib]
# In short: as §1
Cell Line,relative viability ([1]; 0.08 µM),relative viability ([1]; 0.253 µM),relative viability ([1]; 0.8 µM),relative viability ([1]; 2.53 µM),relative viability ([1]; 8 µM),relative viability ([2]; 0.01 µM),relative viability ([2]; 0.03162 µM),relative viability ([2]; 0.1 µM),relative viability ([2]; 0.3162 µM),relative viability ([2]; 1 µM),relative viability ([3]; 0.0002 µM),relative viability ([3]; 0.000632 µM),relative viability ([3]; 0.002 µM),"relative viability ([3]; 0.002 µM, anchor plate)",relative viability ([3]; 0.006325 µM),relative viability ([3]; 0.02 µM)
LCLC-103H,0.998,1.07,1.02,0.835,0.694,0.978,0.894,0.926,0.965,1.08,0.982,0.94,1.01,1.05,0.92,0.278
HCC-827,1.02,1.06,1.06,0.89,0.443,0.97,0.957,0.946,1.05,0.979,1.06,1.04,1.05,1.05,0.738,0.165
NCI-H322M,0.951,0.969,0.847,0.413,0.281,0.975,0.783,1.16,1,1.01,0.922,–,0.918,1.24,0.458,0.421
NCI-H1666,0.973,0.894,1.09,0.847,0.594,0.995,1.03,1.08,0.856,0.517,1.01,1.04,0.963,0.855,0.493,0.317
NCI-H1563,1.03,1.01,0.999,0.752,0.509,0.989,0.979,1.08,0.956,0.895,0.971,1,0.826,0.858,0.564,0.442
NCI-H1623,0.956,1.13,1.01,0.843,0.542,0.98,0.978,1.24,1.04,0.956,0.955,1.01,0.766,–,0.325,0.273
NCI-H1437,1.02,1.06,1.03,0.757,0.346,0.942,0.93,0.951,0.932,0.816,0.928,1,1,0.542,0.272,0.173
NCI-H1944,0.987,0.98,0.953,0.657,0.465,1.04,0.883,1.01,1.01,1.02,0.926,0.94,0.917,–,0.854,0.283
SK-MES-1,0.998,1.09,0.941,0.475,0.162,0.961,1,0.947,0.721,0.414,0.98,0.959,1.05,–,0.319,0.185
NCI-H1792,0.957,0.934,0.813,0.338,0.0683,0.985,0.795,–,0.92,0.7,0.754,0.838,0.904,0.956,0.602,0.277
NCI-H1355,0.96,0.965,0.955,0.647,0.159,1.03,0.913,0.918,0.96,0.947,0.911,0.909,1.08,1.23,0.668,0.152
SK-LU-1,1.05,1.09,0.962,0.455,0.143,1.03,1.04,0.797,0.808,0.616,1.02,0.969,0.778,1.22,0.212,0.162
NCI-H2228,0.846,1.18,0.782,0.179,0.0666,0.951,0.922,1.01,0.791,0.595,0.929,0.974,0.638,1.06,0.103,0.123
NCI-H2342,0.913,0.938,1.1,0.916,0.366,1.02,1.08,1.06,0.857,0.954,1.1,0.948,1.02,–,1.03,0.748
IA-LM,0.852,1.07,1.1,0.866,0.231,0.93,0.935,0.854,0.625,0.203,0.871,0.991,0.833,0.817,0.0932,0.0256
NCI-H1793,0.894,0.979,0.858,0.179,0.106,0.949,0.795,0.859,0.929,0.986,0.843,0.705,0.997,–,0.688,0.208
NCI-H2347,0.966,1.11,1.1,0.891,0.525,0.999,0.946,0.843,0.946,0.926,1,0.936,1.03,1.08,0.615,0.339
A-427,1.05,0.908,0.942,0.286,0.172,0.968,0.972,0.86,0.954,0.719,0.841,0.905,1.05,0.998,0.233,0.169
HCC-366,0.954,1.03,0.985,0.452,0.0338,1,1.05,1.02,1.01,0.744,1.03,0.974,1.05,1.02,1.01,0.045

Cell Line,relative viability ([1]; 0.08 µM),relative viability ([1]; 0.253 µM),relative viability ([1]; 0.8 µM),relative viability ([1]; 2.53 µM),relative viability ([1]; 8 µM),relative viability ([2]; 0.01 µM),relative viability ([2]; 0.03162 µM),relative viability ([2]; 0.1 µM),relative viability ([2]; 0.3162 µM),relative viability ([2]; 1 µM),relative viability ([3]; 0.0002 µM),relative viability ([3]; 0.000632 µM),relative viability ([3]; 0.002 µM),"relative viability ([3]; 0.002 µM, anchor plate)",relative viability ([3]; 0.006325 µM),relative viability ([3]; 0.02 µM)
HCC-78,0.904,1.14,1.08,0.701,0.27,1.09,0.866,0.891,0.771,1.02,0.874,0.901,0.815,0.52,0.512,0.329
PC-14,1,1.07,0.968,0.427,0.104,0.943,1.02,0.787,0.796,0.313,0.957,0.939,0.942,0.871,0.188,0.0669
NCI-H2087,0.959,0.761,1.09,0.277,0.13,1.01,1.14,0.8,0.876,0.298,0.9,1.08,0.726,0.79,0.0629,0.0618
HOP-62,1.03,1.11,1.04,0.825,0.367,1.01,0.985,0.889,1.02,1.05,1.02,0.985,0.925,0.791,0.477,0.076
EKVX,0.9,1.05,1.09,0.844,0.267,1.07,0.891,0.905,0.982,0.918,0.934,0.96,0.987,1.04,0.669,0.124
EMC-BAC-2,0.939,1.03,0.886,0.477,0.246,0.973,0.957,0.74,0.96,0.819,0.938,0.961,0.999,1.11,0.543,0.2
EBC-1,0.945,0.966,0.953,0.475,0.178,0.923,0.958,0.924,0.87,0.338,0.993,1,0.417,0.576,0.0892,0.0983
HARA,0.908,0.951,1.25,0.339,0.217,0.947,0.956,1.01,0.908,0.827,0.937,0.888,0.902,1.11,0.374,0.0946
LU99A,1.02,0.883,0.786,0.426,0.269,0.925,0.963,0.622,0.922,0.364,–,0.737,1.03,1.14,0.797,0.303
NCI-H1648,0.972,1.04,0.983,0.655,0.484,1.02,0.85,1.64,0.718,0.815,0.771,0.769,0.529,–,0.622,0.312
LK-2,1.04,1.02,0.809,0.47,0.127,1.03,1.01,1.17,0.932,1.11,0.841,0.89,0.647,–,0.209,0.182
NCI-H441,1.01,1.01,0.931,0.249,0.143,1.06,0.91,0.99,0.705,0.463,0.936,0.964,0.575,0.555,0.132,0.139
NCI-H23,0.891,0.886,0.796,0.225,0.144,1.01,0.853,0.832,0.761,0.389,0.777,0.72,0.995,1.09,0.294,0.134
NCI-H647,0.868,1.05,0.935,0.14,0.056,0.987,0.894,0.68,0.711,0.303,0.865,0.812,0.55,0.962,0.0435,0.0339
201T,1.02,1.06,0.928,0.892,0.354,0.965,0.909,0.95,1.02,1.05,0.98,0.953,0.959,1.09,0.854,0.351
NCI-H1299,1.04,1.02,1.03,0.719,0.328,0.989,1.03,0.948,1.01,0.9,0.992,0.955,1.03,1,0.507,0.167
NCI-H1734,0.939,0.913,0.799,0.328,0.155,1.01,0.934,0.812,0.821,0.365,0.929,1.01,0.944,0.945,0.15,0.119
NCI-H596,1,0.998,0.879,0.614,0.256,1.01,0.858,0.843,0.691,0.584,0.918,0.894,0.718,1.05,0.241,0.211
